US7375083B2, “Pharmaceutical compositions for prevention of overdose or abuse” (Shire LLC, priority 2003, dated 2008)
Read-outs that look alike come from different tables or passages of the source.

How the values were obtained:
[1] = Oral pharmacokinetics in rats, plasma d-amphetamine by ELISA; conditions: for Percent AUC / Percent Cmax: Oral; for Bioequivalence with amphetamine: rat, oral
[2] = cited from earlier work; for Blood level: 12.5 mg dose
[3] = relative to amphetamine (first value where two are given)
[4] = relative to amphetamine, second of two values printed in the cell

**Q.** For `CC(Cc1ccccc1)NC(=O)[C@H](Cc1ccccc1)NC(=O)[C@@H](N)Cc1ccccc1` (stereo partly drawn) [FF-Amp], which “Percent AUC” value [1, 3] is on record?
**A.** 27%

**Q.** What about the “Percent Cmax” value [1, 3] of the same molecule?
**A.** 64%

**Q.** With `CC(Cc1ccccc1)NC(=O)CNC(=O)CN` (stereo not drawn) [GG-Amp] as the molecule, how does the “Percent AUC” value [1, 3] read?
**A.** 79%

**Q.** And the “Percent Cmax” value [1, 3]?
**A.** 88%

**Q.** With `CC(Cc1ccccc1)NC(=O)C(N)Cc1cnc[nH]1` (stereo not drawn) [H-Amp] as the molecule, how does the “Percent AUC” value [1, 3] read?
**A.** 16%

**Q.** And the “Percent Cmax” value [1, 3]?
**A.** 21%

**Q.** For `CC(Cc1ccccc1)NC(=O)CNC(=O)[C@@H](N)CCCCN` (stereo partly drawn) [KG-Amp], which “Percent AUC” value [1, 3] is on record?
**A.** 69%

**Q.** What about the “Percent Cmax” value [1, 3] of the same molecule?
**A.** 71%

**Q.** Which “Percent AUC” value [1, 3] does the source give for `CC(C)CC(N)C(=O)NC(C)Cc1ccccc1` [L-Amp] here?
**A.** 65%

**Q.** And the “Percent Cmax” value [1, 3]?
**A.** 81%

**Q.** With `CC(C)C[C@H](N)C(=O)N[C@@H](CCC(=O)O)C(=O)NC(C)Cc1ccccc1` (stereo partly drawn) [LE-Amp] as the molecule, how does the “Percent AUC” value [1, 3] read?
**A.** 40%

**Q.** What about the “Percent Cmax” value [1, 3] of the same molecule?
**A.** 28%

**Q.** With `COc1ccc2c3c1O[C@H]1C(=O)CC[C@@]4(O)[C@@H](C2)N(C)CC[C@]314` [Oxycodone] as the molecule, how does the Therapeutic plasma concentration ([2]; in vivo) read?
**A.** 10 to 100 ng/mL

**Q.** What about the Toxic plasma concentration ([2]; in vivo) of the same molecule?
**A.** greater than 200 ng/mL

**Q.** Which Bioequivalence with amphetamine [1] does the source give for `CC(Cc1ccccc1)NC(=O)C(N)Cc1ccccc1` (stereo not drawn) [Phe-Amp, 2-amino-3-phenylpropanoic acid-(1-methyl-2-phenylethyl)-amide] here?
**A.** bioequivalent with amphetamine

**Q.** For `CC(Cc1ccccc1)NC(=O)C(N)CO` (stereo not drawn) [S-Amp], which “Percent AUC” value [1, 3] is on record?
**A.** 79%

**Q.** And the “Percent Cmax” value [1, 3]?
**A.** 62%

**Q.** And the “Percent AUC” value [1, 4]?
**A.** 55%

**Q.** What about the “Percent Cmax” value [1, 4] of the same molecule?
**A.** 75%

**Q.** With `CC(Cc1ccccc1)NC(=O)C(N)CO` (stereo not drawn) [Ser-Amp, 2-amino-3-hydroxylpropanoic acid-(1-methyl-2-phenylethyl)-amide] as the molecule, how does the Bioequivalence with amphetamine [1] read?
**A.** not bioequivalent with amphetamine

**Q.** Which results are given for `CC(N)Cc1ccccc1` (stereo not drawn) [amphetamine]?
**A.** Steady-state blood level ([2]; addicts orally consuming an average of 1000 mg per day): 2000 to 3000 ng/mL; Blood level at which peripheral effects (increased heart rate) start ([2]; in vivo): 20 ng/mL; Peak blood concentration ([2]; single oral dose of 10 mg, 2 hours): 35 ng/mL

**Q.** Which Urine concentration ([2]; 10 mg, first 24 hours) does the source give for `CN[C@@H](C)Cc1ccccc1` [methamphetamine] here?
**A.** 500-4,000 ng/mL

**Q.** What about the Blood level ([2]; 6 hours) of the same molecule?
**A.** about 16 ng/mL

**Q.** And the Blood level ([2]; 24 hours)?
**A.** about 10 ng/mL

**Q.** What about the “Amphetamine concentration of methamphetamine abusers, average” value ([2]; abusers) of the same molecule?
**A.** 1,800 ng/mL

**Q.** And the “Methamphetamine concentration of methamphetamine abusers, average” value ([2]; abusers)?
**A.** 14,200 ng/mL

**Q.** And the “Amphetamine concentration of methamphetamine abusers” value ([2]; abusers, range)?
**A.** 1,000-9,000 ng/mL

**Q.** What about the “Methamphetamine concentration of methamphetamine abusers” value ([2]; abusers, range) of the same molecule?
**A.** 2,400-33,300 ng/mL

**Q.** What about the Estimated lethal dose ([2]; adults) of the same molecule?
**A.** 1 g

**Q.** What about the Estimated lethal dose ([2]; children) of the same molecule?
**A.** 0.1 g

**Q.** And the Maximum blood concentration ([2]; single dose of 10 mg, one hour)?
**A.** 30 ng/mL
